Measurements taken from patent US11066369B2, “N-(pyridin-2-yl)pyridine-sulfonamide derivatives and their use in the treatment of disease” (Novartis AG, priority 2016, dated 2021).
Structures can show the parent of a compound that is named as a salt.

How the values were obtained:
[1] = molecular target: T1, horseradish peroxidase (HRP) tagged delF508-CFTR (Homo sapiens, UniProt P13569, DEL508-508); assay: Measurement of delF508-CFTR-HRP surface expression in CFBE41o- cells; format: cell-based; details: delF508-CFTR-HRP surface expression, CFBE41o- cells; for Emax: read-out: DelF508-CFTR-HRP Amax %; for EC50: read-out: DelF508-CFTR-HRP EC50;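 for DelF508-CFTR-HRP Amax %: percent efficacy relative to reference corrector lumacaftor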
T1 construct: expressed in transfected cells
T1 sequence (P13569 with tags, fused parts or gaps DEL508-508): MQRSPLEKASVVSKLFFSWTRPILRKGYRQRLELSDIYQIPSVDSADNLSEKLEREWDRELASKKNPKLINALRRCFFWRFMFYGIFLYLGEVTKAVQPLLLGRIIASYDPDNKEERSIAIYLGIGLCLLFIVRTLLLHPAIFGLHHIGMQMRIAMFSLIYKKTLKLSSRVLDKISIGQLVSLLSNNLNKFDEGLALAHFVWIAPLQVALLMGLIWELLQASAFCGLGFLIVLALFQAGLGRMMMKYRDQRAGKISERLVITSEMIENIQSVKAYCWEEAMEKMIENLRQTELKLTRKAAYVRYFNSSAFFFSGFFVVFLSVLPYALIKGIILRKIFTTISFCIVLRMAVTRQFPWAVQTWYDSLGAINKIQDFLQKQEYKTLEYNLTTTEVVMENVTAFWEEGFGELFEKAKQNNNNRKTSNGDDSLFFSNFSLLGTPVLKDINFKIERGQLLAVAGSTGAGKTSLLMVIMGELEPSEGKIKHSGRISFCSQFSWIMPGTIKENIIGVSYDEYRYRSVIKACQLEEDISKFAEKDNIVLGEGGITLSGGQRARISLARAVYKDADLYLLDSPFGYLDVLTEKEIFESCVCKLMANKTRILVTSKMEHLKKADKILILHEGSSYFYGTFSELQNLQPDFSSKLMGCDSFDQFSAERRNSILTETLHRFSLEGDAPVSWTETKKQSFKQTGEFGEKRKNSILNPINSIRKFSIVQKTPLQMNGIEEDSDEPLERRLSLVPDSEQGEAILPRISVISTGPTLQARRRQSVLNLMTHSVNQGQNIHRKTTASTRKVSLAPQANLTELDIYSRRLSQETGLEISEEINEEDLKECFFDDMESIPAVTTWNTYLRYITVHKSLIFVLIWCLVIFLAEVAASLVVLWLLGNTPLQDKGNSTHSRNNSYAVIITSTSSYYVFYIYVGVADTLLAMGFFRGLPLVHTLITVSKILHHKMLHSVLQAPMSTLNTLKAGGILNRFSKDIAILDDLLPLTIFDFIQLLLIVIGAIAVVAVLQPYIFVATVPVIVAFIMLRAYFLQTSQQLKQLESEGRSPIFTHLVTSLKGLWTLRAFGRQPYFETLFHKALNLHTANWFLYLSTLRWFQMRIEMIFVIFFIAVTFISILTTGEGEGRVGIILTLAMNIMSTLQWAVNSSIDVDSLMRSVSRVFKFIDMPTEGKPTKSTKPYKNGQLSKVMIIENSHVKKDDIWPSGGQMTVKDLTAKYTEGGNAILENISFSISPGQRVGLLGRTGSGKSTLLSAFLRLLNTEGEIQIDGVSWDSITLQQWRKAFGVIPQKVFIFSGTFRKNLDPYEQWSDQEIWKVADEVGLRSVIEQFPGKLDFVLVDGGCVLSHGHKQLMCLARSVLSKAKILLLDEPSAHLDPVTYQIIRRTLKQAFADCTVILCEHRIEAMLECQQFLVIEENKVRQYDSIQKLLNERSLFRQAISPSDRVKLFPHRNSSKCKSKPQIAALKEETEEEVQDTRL
How it was run: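 CFBE41o- bronchial epithelial cells stably expressing delF508-CFTR with HRP in the fourth extracellular loop; expression induced 48h with 500 ng/mL doxycycline, then compounds added (top 10 μM, 10-point 3-fold series, ≤0.5% DMSO) for 24h at 37° C. Surface HRP measured by luminescence with cell-impermeant substrate; EC50 from logistic fit of triplicates, plate-normalized to lowest concentration; efficacy also relative to a reference corrector.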

[2] = molecular target: T2, delF508-CFTR (Homo sapiens, UniProt P13569, DEL508-508); assay: Measurement of delF508-CFTR functional activity in primary human bronchial epithelial cells (HBECs) using Multi-Transepithelial Clamp Circuit (MTECC-24) assay; format: cell-based; details: primary CF HBECs; for MTECC24 CFHBEC- Amax %: test compound added 24h before assay plus potentiator, relative to reference combination (2 μM corrector + 0.5 μM potentiator); for EC50: test compound added 24h before assay, in the presence of potentiator, mean of at least two replicates, read-out: MTECC24 CFHBEC- EC50
T2 construct: functional activity of the CFTR channel (Chloride ion transport) in patient derived primary human bronchial epithelial cells; host or cells: patient-derived primary human bronchial epithelial cells (delF508-CFTR)
T2 sequence (P13569 with tags, fused parts or gaps DEL508-508): as above
How it was run: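 Patient-derived primary delF508-CFTR HBECs, differentiated at air-liquid interface ~2 weeks, treated basolaterally with compound for 24 h, then apical and basolateral compound in HEPES pH 7.4 assay medium. Equivalent short-circuit current (Ieq) recorded on MTECC-24 with sequential amiloride, forskolin, potentiator and INH-172; normalized to 0.1% DMSO, EC50 from curve fit.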

| SMILES | Emax [1] [%] | EC50 [1] [nM] | MTECC24 CFHBEC- Amax % [2] [%] | EC50 [2] [nM] |
| --- | --- | --- | --- | --- |
| Cc1cccc(C)c1-c1nc(NS(=O)(=O)c2cccc(N3CCNC(=O)C3)n2)ccc1Cl [Example 131, N-(5-chloro-6-(2,6-dimethylphenyl)pyridin-2-yl)-6-(3-oxopiperazin-1-yl)pyridine-2-sulfonamide] | 729 | 2140 | 78.4 | 25 |
| Cc1cccc(C)c1-c1cc(C(F)(F)F)cc(NS(=O)(=O)c2cccc(N3CCNCC3)n2)n1 [Example 133, N-(6-(2,6-dimethylphenyl)-4-(trifluoromethyl)pyridin-2-yl)-6-(piperazin-1-yl)pyridine-2-sulfonamide Hydrochloride] | 570 | 2030 | 71.2 | 97.9 |
| Cc1ccc(F)cc1-c1nc(NS(=O)(=O)c2cccc(N3CCN4C[C@@H](F)C[C@@H]4C3)n2)ccc1Cl [Example 134, N-(5-chloro-6-(5-fluoro-2-methylphenyl)pyridin-2-yl)-6-((7S,8aR)-7-fluorohexahydropyrrolo[1,2-a]pyrazin-2(1H)-yl)pyridine-2-sulfonamide] | 906 | 1980 | 112.7 | 19 |
| Cc1ccc(F)cc1-c1nc(NS(=O)(=O)c2cccc(N3CCN4C[C@@H](F)CC4[C@@H]3C)n2)ccc1Cl (stereo partly drawn) [Example 135, N-(5-chloro-6-(5-fluoro-2-methylphenyl)pyridin-2-yl)-6-((1S,7S)-7-fluoro-1-methylhexahydropyrrolo[1,2-a]pyrazin-2(1H)-yl)pyridine-2-sulfonamide] | 804 | 3440 | 95.3 | 13 |
| Cc1ccccc1-c1nc(NS(=O)(=O)c2cccc(N3CCN4C[C@@H](F)C[C@@H]4C3)n2)ccc1C(F)(F)F [Example 138, 6-((7S,8aR)-7-fluorohexahydropyrrolo[1,2-a]pyrazin-2(1H)-yl)-N-(6-(o-tolyl)-5-(trifluoromethyl)pyridin-2-yl)pyridine-2-sulfonamide] | 636 | 681 | 108.4 | 15.6 |
| Cc1c(F)cccc1-c1nc(NS(=O)(=O)c2cccc(N3CCN(C(C)(C)C)CC3)n2)ccc1Cl [Example 140, 6-(4-(tert-butyl)piperazin-1-yl)-N-(5-chloro-6-(3-fluoro-2-methylphenyl)pyridin-2-yl)pyridine-2-sulfonamide] | 395 | 3480 | 65.3 | 29.5 |
| Cc1c(F)cccc1-c1nc(NS(=O)(=O)c2cccc(N3CCN(C4CC4)CC3)n2)ccc1Cl [Example 141, N-(5-chloro-6-(3-fluoro-2-methylphenyl)pyridin-2-yl)-6-(4-cyclopropylpiperazin-1-yl)pyridine-2-sulfonamide] | 938 | 2020 | 88.7 | 8.6 |
| Cc1c(F)cccc1-c1nc(NS(=O)(=O)c2cccc(N3CCN(C(C)(C)C)CC3)n2)ccc1C(F)(F)F [Example 142, 6-(4-(tert-butyl)piperazin-1-yl)-N-(6-(3-fluoro-2-methylphenyl)-5-(trifluoromethyl)pyridin-2-yl)pyridine-2-sulfonamide] | 418 | 2630 | 63.7 | 5.2 |
| Cc1c(F)cccc1-c1nc(NS(=O)(=O)c2cccc(N3CCN(C4CC4)CC3)n2)ccc1C(F)(F)F [Example 144, 6-(4-cyclopropylpiperazin-1-yl)-N-(6-(3-fluoro-2-methylphenyl)-5-(trifluoromethyl)pyridin-2-yl)pyridine-2-sulfonamide] | – | 1880 | 80.5 | 2 |
| Cc1ccc(F)cc1-c1nc(NS(=O)(=O)c2cccc(N3CCN(C4CC4)CC3)n2)ccc1C(F)(F)F [Example 145, 6-(4-cyclopropylpiperazin-1-yl)-N-(6-(5-fluoro-2-methylphenyl)-5-(trifluoromethyl)pyridin-2-yl)pyridine-2-sulfonamide] | – | 1270 | 90.9 | 5 |
| CC(C)(C)OC(=O)N1CCN(c2cccc(S(=O)(=O)Nc3ccc(C(F)(F)F)c(-c4ccccc4C4CC4)n3)n2)CC1 [Example 147, tert-butyl 4-(6-(N-(6-(2-cyclopropylphenyl)-5-(trifluoromethyl)pyridin-2-yl)sulfamoyl)pyridin-2-yl)piperazine-1-carboxylate] | 482 | 375 | 92.8 | 4.2 |
| O=S(=O)(Nc1ccc(C(F)(F)F)c(-c2ccccc2C2CC2)n1)c1cccc(N2CCNCC2)n1 [Example 148, N-(6-(2-cyclopropylphenyl)-5-(trifluoromethyl)pyridin-2-yl)-6-(piperazin-1-yl)pyridine-2-sulfonamide] | 363 | 2460 | 74.1 | 85.4 |
| COc1ccc(F)cc1-c1nc(NS(=O)(=O)c2cccc(N3CCN(C(C)(C)C)CC3)n2)ccc1C(F)(F)F [Example 149, 6-(4-(tert-butyl)piperazin-1-yl)-N-(6-(5-fluoro-2-methoxyphenyl)-5-(trifluoromethyl)pyridin-2-yl)pyridine-2-sulfonamide] | 289 | 1750 | 76.0 | 22.8 |
| O=S(=O)(Nc1ccc(C(F)(F)F)c(-c2ccccc2Cl)n1)c1cccc(N2CCNCC2)n1 [Example 150, N-(6-(2-chlorophenyl)-5-(trifluoromethyl)pyridin-2-yl)-6-(piperazin-1-yl)pyridine-2-sulfonamide hydrochloride] | 180 | 3510 | 64.4 | 97.3 |
| Cc1c(F)cccc1-c1nc(NS(=O)(=O)c2cccc(N3CCNCC3)n2)ccc1C(F)(F)F [Example 151, N-(6-(3-Fluoro-2-Methylphenyl)-5-(Trifluoromethyl)Pyridin-2-yl)-6-(Piperazin-1-yl)Pyridine-2-Sulfonamide Hydrochloride] | 187 | 3690 | 75.3 | 95.6 |
| Cc1ccc(F)cc1-c1nc(NS(=O)(=O)c2cccc(N3CCNCC3)n2)ccc1C(F)(F)F [Example 152, N-(6-(5-Fluoro-2-Methylphenyl)-5-(Trifluoromethyl)Pyridin-2-yl)-6-(Piperazin-1-yl)Pyridine-2-Sulfonamide Hydrochloride] | 332 | 2680 | 62.5 | 57.8 |
| COc1ccc(Cl)c(-c2nc(NS(=O)(=O)c3cccc(N4CCNCC4)n3)ccc2C(F)(F)F)c1 [Example 154, N-(6-(2-chloro-5-methoxyphenyl)-5-(trifluoromethyl)pyridin-2-yl)-6-(piperazin-1-yl)pyridine-2-sulfonamide hydrochloride] | 395 | 3460 | 69.5 | 239 |
| COc1ccc(Cl)c(-c2nc(NS(=O)(=O)c3cccc(N4CCNCC4)n3)ccc2Cl)c1 [Example 158, N-(5-chloro-6-(2-chloro-5-methoxyphenyl)pyridin-2-yl)-6-(piperazin-1-yl)pyridine-2-sulfonamide hydrochloride] | 230 | 4190 | 76.6 | 93.5 |
| Cc1ccccc1-c1nc(NS(=O)(=O)c2cccc(N3CCN(C(=O)OC(C)(C)C)CC3)n2)ccc1C(F)(F)F [Example 160, tert-butyl 4-(6-(N-(6-(o-tolyl)-5-(trifluoromethyl)pyridin-2-yl)sulfamoyl)pyridin-2-yl)piperazine-1-carboxylate] | 476 | 743 | 88.2 | 23.3 |
| Cc1ccccc1-c1nc(NS(=O)(=O)c2cccc(N3CCNCC3)n2)ccc1C(F)(F)F [Example 161, 6-(piperazin-1-yl)-N-(6-(o-tolyl)-5-(trifluoromethyl)pyridin-2-yl)pyridine-2-sulfonamide (HCl Salt)] | 222 | 2900 | 88.2 | 91.6 |
| Cc1cccc(C)c1-c1nc(NS(=O)(=O)c2cccc(N3CCN(C(=O)OC(C)(C)C)CC3)n2)ccc1Cl [Example 162, tert-butyl 4-(6-(N-(5-chloro-6-(2,6-dimethylphenyl)pyridin-2-yl)sulfamoyl)pyridin-2-yl)piperazine-1-carboxylate] | 662 | 666 | 58.8 | 17.7 |
| Cc1cccc(C)c1-c1nc(NS(=O)(=O)c2cccc(N3CCNCC3)n2)ccc1Cl [Example 163, N-(5-chloro-6-(2,6-dimethylphenyl)pyridin-2-yl)-6-(piperazin-1-yl)pyridine-2-sulfonamide Hydrochloride] | 305 | 3140 | 64.8 | 59 |
